Test results from patent publication US10227323B2, “Glucosylceramide synthase inhibitors for the treatment of diseases” (BIOMARIN PHARMACEUTICAL INC., priority 2013, dated 2019).

Each compound was assayed against T1, GCS (Canis lupus familiaris, UniProt A0A8I3MXG6) (assay: Assay 1: GCS Enzymatic Assay (MDCK cell lysate, C6-NBD-Ceramide, LC/MS)). Conditions: Table 1; MDCK cell lysate; read-out: IC50 (nM) generated from Assay 1.
T1 sequence (A0A8I3MXG6 1-394): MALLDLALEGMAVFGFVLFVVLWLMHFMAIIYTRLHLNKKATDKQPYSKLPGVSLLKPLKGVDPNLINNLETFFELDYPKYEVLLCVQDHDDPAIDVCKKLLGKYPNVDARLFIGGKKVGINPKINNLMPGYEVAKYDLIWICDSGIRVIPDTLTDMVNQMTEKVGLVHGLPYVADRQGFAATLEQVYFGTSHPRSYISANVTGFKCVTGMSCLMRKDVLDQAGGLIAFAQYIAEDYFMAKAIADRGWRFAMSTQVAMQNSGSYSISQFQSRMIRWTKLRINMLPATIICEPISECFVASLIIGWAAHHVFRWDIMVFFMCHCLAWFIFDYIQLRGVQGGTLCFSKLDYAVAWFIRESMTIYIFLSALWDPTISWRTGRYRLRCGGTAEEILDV
Assay type: biochemical, canine
In short: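 LC/MS/MS measurement of glucosylceramide and NBD-ceramide after a 1 h, 37 °C reaction with 100 μM UDP-glucose and 10 μM C6-NBD-ceramide gave IC50s or percent inhibition.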

SMILES | IC50 [nM]
O=C(N[C@H](CN1CCCC1)[C@H](O)c1ccc(OC2CC2)c(Cl)c1)C(F)(F)CCc1ccc2ccccc2c1 [Compound 52, N-((1R,2R)-1-(3-chloro-4-cyclopropoxyphenyl)-1-hydroxy-3-(pyrrolidin-1-yl)propan-2-yl)-2,2-difluoro-4-(naphthalen-2-yl)butanamide] | < 50
O=C(N[C@H](CN1CCCC1)[C@H](O)c1ccc2c(c1)OCCO2)C(=O)c1cc2cc(Cl)ccc2o1 [Compound 71, 2-(5-chlorobenzofuran-2-yl)-N-((1R,2R)-1-(2,3-dihydrobenzo[b][1,4]dioxin-6-yl)-1-hydroxy-3-(pyrrolidin-1-yl)propan-2-yl)-2-oxoacetamide] | < 50
COc1ccc(C(O)[C@@H](CN2CCCC2)NC(=O)C(F)(F)C2Cc3ccccc3C2)cc1F (stereo partly drawn) [Compound 5A, 2-(2,3-dihydro-1H-inden-2-yl)-2,2-difluoro-N-((2R)-1-(3-fluoro-4-methoxyphenyl)-1-hydroxy-3-(pyrrolidin-1-yl)propan-2-yl)acetamide] | 50 to 5000

Same assay, conditions: Table 1; values marked *; MDCK cell lysate

SMILES | % inhibition generated from Assay 1
O=C(N[C@H](CN1CCCC1)[C@@H](O)c1cc2cc(Cl)ccc2o1)C(F)(F)c1cc2cc(Cl)ccc2o1 [Compound 68G, 2-(5-chlorobenzofuran-2-yl)-N-((1R,2R)-1-(5-chlorobenzofuran-2-yl)-1-hydroxy-3-(pyrrolidin-1-yl)propan-2-yl)-2,2-difluoroacetamide] | B* (the compound had a % inhibition of greater than or equal to about 3% but less than about 50%)
O=C(N[C@H](CN1CCCC1)[C@H](O)c1ccc2c(c1)OCCO2)C(F)(F)c1cc2cc(Cl)c(Cl)cc2o1 [Compound 18, 2-(5,6-dichlorobenzofuran-2-yl)-N-((1R,2R)-1-(2,3-dihydrobenzo[b][1,4]dioxin-6-yl)-1-hydroxy-3-(pyrrolidin-1-yl)propan-2-yl)-2,2-difluoroacetamide] | B* (the compound had a % inhibition of greater than or equal to about 3% but less than about 50%)

Same assay, conditions: Table 2; data marked by *

SMILES | % inhibition generated from Assay 1
O=C(CCc1ccc2cc(F)ccc2c1)C(=O)N[C@H](CN1CCC1)[C@H](O)c1ccc(OC2CC2)c(Cl)c1 [Compound 154, N-((1R,2R)-3-(azetidin-1-yl)-1-(3-chloro-4-cyclopropoxyphenyl)-1-hydroxypropan-2-yl)-4-(6-fluoronaphthalen-2-yl)-2-oxobutanamide] | B* (the compound had a % inhibition of greater than or equal to about 3% but less than about 50%)
CN1CCC(Oc2ccc([C@@H](O)[C@@H](CN3CCCC3)NC(=O)C(F)(F)CCc3ccc4ccccc4c3)cc2Cl)CC1 [Compound 121, N-((1R,2R)-1-(3-chloro-4-((l-methylpiperidin-4-yl)oxy)phenyl)-1-hydroxy-3-(pyrrolidin-1-yl)propan-2-yl)-2,2-difluoro-4-(naphthalen-2-yl)butanamide] | B* (the compound had a % inhibition of greater than or equal to about 3% but less than about 50%)

Same assay, conditions: Table 2; data without asterisk; read-out: IC50 (nM) generated from Assay 1

SMILES | IC50 [nM]
O=C(N[C@H](CN1CCCC1)[C@H](O)c1ccc(OC2CC2)c(Cl)c1)C(F)(F)CCc1ccc2cc(F)ccc2c1 [Compound 82, N-((1R,2R)-1-(3-chloro-4-cyclopropoxyphenyl)-1-hydroxy-3-(pyrrolidin-1-yl)propan-2-yl)-2,2-difluoro-4-(6-fluoronaphthalen-2-yl)butanamide] | < 50
O=C(N[C@H](CN1CCCC1)[C@H](O)c1ccc(OC2CC2)c(Cl)c1)C(=O)c1ccc(-c2ccc(C3CC3)cc2)cc1 [Compound 370, N-((1R,2R)-1-(3-chloro-4-cyclopropoxyphenyl)-1-hydroxy-3-(pyrrolidin-1-yl)propan-2-yl)-2-(4′-cyclopropyl-[1,1′-biphenyl]-4-yl)-2-oxoacetamide] | < 50
Cn1ncc2cc(-c3ccc(C(=O)C(=O)N[C@H](CN4CCC4)[C@H](O)c4ccc(OC5CC5)c(Cl)c4)cc3)ccc21 [Example 279, N-((1R,2R)-3-(azetidin-1-yl)-1-(3-chloro-4-cyclopropoxyphenyl)-1-hydroxypropan-2-yl)-2-(4-(1-methyl-1H-indazol-5-yl)phenyl)-2-oxoacetamide] | < 50
O=C(N[C@H](CN1CCCC1)[C@H](O)c1cc(F)c2c(c1)OCCO2)C(=O)c1ccc(-c2ccc3c(cnn3C3CC3)c2)cc1 [Example 275, 2-(4-(1-cyclopropyl-1H-indazol-5-yl)phenyl)-N-((1R,2R)-1-(8-fluoro-2,3-dihydrobenzo[b][1,4]dioxin-6-yl)-1-hydroxy-3-(pyrrolidin-1-yl)propan-2-yl)-2-oxoacetamide] | < 50
O=C(N[C@H](CN1CCC1)[C@H](O)c1cc(Cl)c2c(c1)OCCO2)C(=O)c1ccc(-c2ccc3c(cnn3C3CC3)c2)cc1 [Example 285, N-((1R,2R)-3-(azetidin-1-yl)-1-(8-chloro-2,3-dihydrobenzo[b][1,4]dioxin-6-yl)-1-hydroxypropan-2-yl)-2-(4-(1-cyclopropyl-1H-indazol-5-yl)phenyl)-2-oxoacetamide] | < 50
CC(C)n1cc(-c2ccc(C(=O)C(=O)N[C@H](CN3CCCC3)[C@H](O)c3cc(F)c4c(c3)OCCO4)cc2)cn1 [Example 330, N-((1R,2R)-1-(8-fluoro-2,3-dihydrobenzo[b][1,4]dioxin-6-yl)-1-hydroxy-3-(pyrrolidin-1-yl)propan-2-yl)-2-(4-(1-isopropyl-1H-pyrazol-4-yl)phenyl)-2-oxoacetamide] | < 50
O=C(N[C@H](CN1CCCC1)[C@H](O)c1ccc(OC2CC2)c(Cl)c1)C(=O)c1ccc2c(cnn2Cc2ccc(F)cc2)c1 [Example 288, N-((1R,2R)-1-(3-chloro-4-cyclopropoxyphenyl)-1-hydroxy-3-(pyrrolidin-1-yl)propan-2-yl)-2-(1-(4-fluorobenzyl)-1H-indazol-5-yl)-2-oxoacetamide] | < 50
Cn1ncc2ccc(-c3ccc(C(F)(F)C(=O)N[C@H](CN4CCCC4)[C@H](O)c4ccc(OC5CC5)c(Cl)c4)cc3)cc21 [Compound 232, N-((1R,2R)-1-(3-chloro-4-cyclopropoxyphenyl)-1-hydroxy-3-(pyrrolidin-1-yl)propan-2-yl)-2,2-difluoro-2-(4-(1-methyl-1H-indazol-6-yl)phenyl)acetamide] | < 50
O=C(N[C@H](CN1CCCC1)[C@H](O)c1ccc(OC2CC2)c(Cl)c1)C(=O)c1ccc(-c2ccn(C3CC3)n2)cc1 [Example 349, N-((1R,2R)-1-(3-chloro-4-cyclopropoxyphenyl)-1-hydroxy-3-(pyrrolidin-1-yl)propan-2-yl)-2-(4-(1-cyclopropyl-1H-pyrazol-3-yl)phenyl)-2-oxoacetamide] | < 50
Cn1ncc2cc(-c3ccc(C(F)(F)C(=O)N[C@H](CN4CCCC4)[C@H](O)c4ccc(OC5CC5)c(Cl)c4)cc3)ccc21 [Compound 202, N-((1R,2R)-1-(3-chloro-4-cyclopropoxyphenyl)-1-hydroxy-3-(pyrrolidin-1-yl)propan-2-yl)-2,2-difluoro-2-(4-(1-methyl-1H-indazol-5-yl)phenyl)acetamide] | < 50
CC(C)n1cc2ccc(-c3ccc(C(=O)C(=O)N[C@H](CN4CCCC4)[C@H](O)c4ccc(OC5CC5)c(Cl)c4)cc3)cc2n1 [Compound 257, N-((1R,2R)-1-(3-chloro-4-cyclopropoxyphenyl)-1-hydroxy-3-(pyrrolidin-1-yl)propan-2-yl)-2-(4-(2-isopropyl-2H-indazol-6-yl)phenyl)-2-oxoacetamide] | < 50
CC(C)(O)c1ccc(-c2ccc(C(=O)C(=O)N[C@H](CN3CCCC3)[C@H](O)c3cc(F)c4c(c3)OCCO4)cc2)cc1 [Example 356, N-((1R,2R)-1-(8-fluoro-2,3-dihydrobenzo[b][1,4]dioxin-6-yl)-1-hydroxy-3-(pyrrolidin-1-yl)propan-2-yl)-2-(4′-(2-hydroxypropan-2-yl)-[1,1′-biphenyl]-4-yl)-2-oxoacetamide] | < 50
O=C(N[C@H](CN1CCCC1)[C@H](O)c1cc(F)c2c(c1)OCCO2)C(=O)c1ccc(C2CCOCC2)cc1 [Compound 373, N-((1R,2R)-1-(8-fluoro-2,3-dihydrobenzo[b][1,4]dioxin-6-yl)-1-hydroxy-3-(pyrrolidin-1-yl)propan-2-yl)-2-oxo-2-(4-(tetrahydro-2H-pyran-4-yl)phenyl)acetamide] | < 50
O=C(N[C@H](CN1CCCC1)[C@H](O)c1ccc(OC2CC2)c(Cl)c1)C(=O)c1ccc(-c2ccc3c(cnn3C3CC3)c2)cc1 [Example 277, N-((1R,2R)-1-(3-chloro-4-cyclopropoxyphenyl)-1-hydroxy-3-(pyrrolidin-1-yl)propan-2-yl)-2-(4-(1-cyclopropyl-1H-indazol-5-yl)phenyl)-2-oxoacetamide] | < 50

Same assay, conditions: Table 3; MDCK cell lysate; read-out: IC50 (nM) generated from Assay 1

SMILES | IC50 [nM]
O=C(N[C@H](CN1CCCC1)[C@H](O)c1ccc(OC2CC2)cc1)C(=O)c1ccc(-c2ccc(Cl)s2)cc1 [Example 392, 2-(4-(5-chlorothiophen-2-yl)phenyl)-N-((1R,2R)-1-(4-cyclopropoxyphenyl)-1-hydroxy-3-(pyrrolidin-1-yl)propan-2-yl)-2-oxoacetamide] | < 50
O=C(N[C@H](CN1CCCC1)[C@H](O)c1ccc(OC2CC2)cc1)C(=O)c1cc2ccccc2s1 [Example 388, 2-(benzo[b]thiophen-2-yl)-N-((1R,2R)-1-(4-cyclopropoxyphenyl)-1-hydroxy-3-(pyrrolidin-1-yl)propan-2-yl)-2-oxoacetamide] | < 50
